SMILES strings stand for the structures.

The experiment concerns mutant Huntington (HTT) protein. The experiment can be described thus: HTT Mutant HTRF iPSC assay (mHTT protein lowering). Particulars: human iPSC derived from a HTT patient with a poly-Q49 mutation. Type of experiment: cell-based. A general note: Time-resolved FRET reads energy transfer from a long-lived donor to a nearby acceptor.

As for `Cc1cn2nc(-c3cc(F)c4nc(N(C)C5CC(C)(C)NC(C)(C)C5)oc4c3)ccc2n1` [Compound 504, 4-fluoro-N-methyl-6-(2-methylimidazo[1,2-b]pyridazin-6-yl)-N-(2,2,6,6-tetramethylpiperidin-4-yl)benzo[d]oxazol-2-amine], the IC50 (usually the concentration that gives 50% inhibition) lay within 100 to 1000 nM.
For `Cc1cc2nc(-c3cc(F)c4nc(C5CCNCC5)cn4c3)ncc2s1` [Compound 201, 2-(8-fluoro-2-(piperidin-4-yl)imidazo[1,2-a]pyridin-6-yl)-6-methylthieno[3,2-d]pyrimidine] the value was 100 to 1000 nM; for `Cc1cn2nc(-c3ccc4nc(C5CCN(C)CC5)cn4c3)cc(C)c2n1` [Compound 552], 100 to 1000 nM.
`Cc1cn2nc(-c3cc(F)c4nc(NC(=O)C5CCCNC5)nn4c3)cc(C)c2n1` (single isomer, unassigned) [Compound 315] had an IC50 of 100 to 1000 nM.
For `Cn1cc2cc(-c3cc(F)c4nc([C@H]5CNCCO5)cn4c3)cc(F)c2n1` (single isomer, unassigned) [Compound 70] the value was 1000 to 9000 nM.
For `Cc1cn2nc(-c3cc(F)c4nc([C@H]5C[C@]6(CCNC6)C5)cn4c3)cc(C)c2n1` [Compound 191, 6-(8-fluoro-2-((2s,4s)-6-azaspiro[3.4]octan-2-yl)imidazo[1,2-a]pyridin-6-yl)-2,8-dimethylimidazo[1,2-b]pyridazine] the value was less than 100 nM; for `CCN1CC[C@@H](N(C)c2nc3c(F)cc(-c4cc(C)c5nc(C)cn5n4)cc3o2)C[C@@H]1C` (relative stereo) [Compound 488, rel-6-(2,8-dimethylimidazo[1,2-b]pyridazin-6-yl)-N-((2R,4S)-1-ethyl-2-methylpiperidin-4-yl)-4-fluoro-N-methylbenzo[d]oxazol-2-amine], 100 to 1000 nM; for `Cc1cn2nc(-c3cc(F)c4nc(NC(=O)C5CN(C6CCC6)C5)cn4c3)cc(C)c2n1` [Compound 263, 1-cyclobutyl-N-(6-(2,8-dimethylimidazo[1,2-b]pyridazin-6-yl)-8-fluoroimidazo[1,2-a]pyridin-2-yl)azetidine-3-carboxamide], less than 100 nM.
For `Cc1cn2nc(-c3cc(F)c4nc(C5CC6(CCNCC6)C5)cn4c3)cc(C)c2n1` [Compound 78, 6-(8-fluoro-2-(7-azaspiro[3.5]nonan-2-yl)imidazo[1,2-a]pyridin-6-yl)-2,8-dimethylimidazo[1,2-b]pyridazine] the value was less than 100 nM.
As to `Fc1cc(-c2cccc3nonc23)cn2cc(C3CCNCC3)nc12` [Compound 48, 4-(8-fluoro-2-(piperidin-4-yl)imidazo[1,2-a]pyridin-6-yl)benzo[c][1,2,5]oxadiazole], the IC50 was in the range of 1000 to 9000 nM.
`CCN1CCC(c2cn3cc(-c4ccc5nc(C)cn5n4)cc(F)c3n2)CC1` [Compound 3, 6-(2-(1-ethylpiperidin-4-yl)-8-fluoroimidazo[1,2-a]pyridin-6-yl)-2-methylimidazo[1,2-b]pyridazine] displayed an IC50 of less than 100 nM.
`Cn1cc2cc(-c3cc(F)c4nc(CC5CNC5)cn4c3)ccc2n1` [Compound 20, 5-(2-(azetidin-3-ylmethyl)-8-fluoroimidazo[1,2-a]pyridin-6-yl)-2-methyl-2H-indazole]: the IC50 fell in the range of 1000 to 9000 nM.
`COc1cc2cc(-c3cc(F)c4nc(C5CCNCC5)cn4c3)ccc2cn1` [Compound 164, 6-(8-fluoro-2-(piperidin-4-yl)imidazo[1,2-a]pyridin-6-yl)-3-methoxyisoquinoline] showed an IC50 of 100 to 1000 nM.
For `Cn1cc2cc(-c3cc(F)c4nc(C5CCCNC5)cn4c3)ccc2n1` (centres unmarked) [Compound 16, 5-(8-fluoro-2-(piperidin-3-yl)imidazo[1,2-a]pyridin-6-yl)-2-methyl-2H-indazole] the value was 100 to 1000 nM; for `Cc1cn2nc(-c3cc(F)c4nc(C5CC6CCC(C5)N6)cn4c3)cc(C)c2n1` (centres unmarked) [Compound 206], less than 100 nM; for `Cc1cn2cc(-c3cc(F)c4nn(C5CCNCC5)nc4c3)cc(F)c2n1` [Compound 137, 4-fluoro-6-(8-fluoro-2-methylimidazo[1,2-a]pyridin-6-yl)-2-(piperidin-4-yl)-2H-benzo[d][1,2,3]triazole], 100 to 1000 nM.
Regarding `CN1C(=O)Cc2ccc(-c3cc(F)c4nc(C5CCNCC5)cn4c3)cc21` [Compound 55, 6-(8-fluoro-2-(piperidin-4-yl)imidazo[1,2-a]pyridin-6-yl)-1-methylindolin-2-one], the IC50 lay within 1000 to 9000 nM.
For the compound `Cc1cn2nc(-c3cc(F)c4nc(C5CCN(C)CC5)oc4c3)cc(C)c2n1` [Compound 456, 6-(2,8-dimethylimidazo[1,2-b]pyridazin-6-yl)-4-fluoro-2-(1-methylpiperidin-4-yl)benzo[d]oxazole], the IC50 was 100 to 1000 nM.
`Cc1cn2cc(-c3cc(F)c4nc(C5CCNCC5)oc4c3)cc(C)c2n1` [Compound 155, 6-(2,8-dimethylimidazo[1,2-a]pyridin-6-yl)-4-fluoro-2-(piperidin-4-yl)benzo[d]oxazole] displayed an IC50 of 1000 to 9000 nM.
`Cc1cn2nc(-c3cc(F)c4nc(NC5CCN(C6CCOC6)CC5)oc4c3)cc(C)c2n1` (centres unmarked) [Compound 481, 6-(2,8-dimethylimidazo[1,2-b]pyridazin-6-yl)-4-fluoro-N-(1-(tetrahydrofuran-3-yl)piperidin-4-yl)benzo[d]oxazol-2-amine]: the IC50 was less than 100 nM.
For `Cc1cn2nc(-c3cc(F)c4nc(C5CCN(Cc6ncccn6)CC5)nn4c3)cc(C)c2n1` [Compound 441, 6-(2,8-dimethylimidazo[1,2-b]pyridazin-6-yl)-8-fluoro-2-(1-(pyrimidin-2-ylmethyl)piperidin-4-yl)-[1,2,4]triazolo[1,5-a]pyridine] the value was 100 to 1000 nM.
On to `Cc1cn2nc(-c3cc(F)c4nc(NC(=O)CC5CCNC5)cn4c3)cc(C)c2n1` (racemic) [Compound 283, N-(6-(2,8-dimethylimidazo[1,2-b]pyridazin-6-yl)-8-fluoroimidazo[1,2-a]pyridin-2-yl)-2-(pyrrolidin-3-yl)acetamide], for which the IC50 lay within 100 to 1000 nM.
For `COCCN1CCC(c2nc3cc(-c4cc(C)c5nc(C)cn5n4)cc(F)c3[nH]2)CC1` [Compound 417, 6-(7-fluoro-2-(1-(2-methoxyethyl)piperidin-4-yl)-1H-benzo[d]imidazol-5-yl)-2,8-dimethylimidazo[1,2-b]pyridazine] the value was 100 to 1000 nM; for `Cc1cn2nc(-c3cc(F)c4nc([C@@H]5C6CCN(C)CC65)cn4c3)cc(C)c2n1` (stereo partly drawn) [Compound 231, 6-(8-fluoro-2-((7R)-3-methyl-3-azabicyclo[4.1.0]heptan-7-yl)imidazo[1,2-a]pyridin-6-yl)-2,8-dimethylimidazo[1,2-b]pyridazine], less than 100 nM.
For `Cc1cn2nc(-c3cc(F)c4nc(N5CCC6(CCN(C)C6)CC5)oc4c3)cc(C)c2n1` [Compound 470, 6-(2,8-dimethylimidazo[1,2-b]pyridazin-6-yl)-4-fluoro-2-(2-methyl-2,8-diazaspiro[4.5]decan-8-yl)benzo[d]oxazole] the value was less than 100 nM.
For `Cc1cn2nc(-c3cc(F)c4nc([C@H]5[C@@H]6CN(C)C[C@@H]65)cn4c3)cc(C)c2n1` [Compound 185, 6-[8-fluoro-2-[(1S,5R)-3-methyl-3-azabicyclo[3.1.0]hexan-6-yl]imidazo[1,2-a]pyridin-6-yl]-2,8-dimethyl-imidazo[1,2-b]pyridazine] the value was less than 100 nM.

Values taken from US20250353841A1 (BIOGEN MA INC., priority 2022, published 2025).
